Source: patent US10612051B2, “Method of producing bioproducts” (White Dog Labs, Inc., priority 2015, dated 2020)

How the values were obtained:
[1] = Extraction with dimethyl ether (DME), distribution coefficient for comparison; format: physicochemical; conditions: extracting with dimethyl ether
Procedure: (§1) 100 g (grams) aqueous solutions of various bioproducts were prepared. Bioproduct initial concentration was 2%. Each of these bioproduct aqueous solutions was extracted in a pressure vessel by mixing with 100 g 1-butene (the olefin). The amount of formed extract and formed raffinate and the concentration (conc.) of the bioproduct in each were determined. Theses concentrations were used to calculate the bioproduct distribution coefficient (DC). Table 2 compares the found distribution coefficients to those of extracting with dimethyl ether (DME).

[2] = Extraction of aqueous bioproduct solutions with 1-butene in a pressure vessel (distribution coefficient); format: physicochemical; conditions: for DC (bioproduct distribution coefficient): 1-butene / aqueous phase, Table 1; for Extract Bioproduct conc. (%) / Raffinate Bioproduct conc. (%): 100 g aqueous solution, 2% initial bioproduct, mixed with 100 g 1-butene; for Extract Bioproduct conc. (%): extract phase; for Raffinate Bioproduct conc. (%): raffinate phase
Procedure: as §1

[3] = 25° C.; cited from earlier work

Row | Structure (SMILES) | Distribution coefficient DME [1] | DC (bioproduct distribution coefficient) [2] | Extract Bioproduct conc. (%) [2] [%] | Raffinate Bioproduct conc. (%) [2] [%] | n-butanol content of saturated aqueous solution [3]
1 | CCCC=O [Butanal] | 5.11 | 6.96 | 1.78 | 0.26 | 
2 | CCCC(C)=O [Example 2-Pentanone, 2-Pentanone] | 5.82 | 7.95 | 1.81 | 0.23 | 
3 | O=Cc1ccco1 [Furfural] | 3.79 | 3.35 | 1.56 | 0.47 | 
4 | O=C1CCCO1 [Gamma Butyrolactone] | 3.14 | 3.69 | 1.60 | 0.43 | 
5 | O=C(O)CCCC(=O)O [Glutaric Acid] | 1.88 | 0.27 | 0.44 | 1.51 | 
6 | CCCC(=O)OC [Methyl Butyrate] | 20.73 | 53.8 | 2.00 | 0.038 | 
7 | CCC(=O)O [Propionic Acid] | 2.27 | 1.01 | 1.00 | 1.00 | 
8 | O=C(O)CCC(=O)O [Succinic Acid] | 1.01 | 0.11 | 0.158 | 1.77 | 
9 | CCCCO [n-butanol] |  |  |  |  | about 7.3 wt %
